These results are taken from patent publication US9145373B2, “Certain kynurenine-3-monooxygenase inhibitors, pharmaceutical compositions, and methods of use thereof” (CHDI FOUNDATION, INC., priority 2008, dated 2015).

T1 sequence (Q91WN4 whole entry): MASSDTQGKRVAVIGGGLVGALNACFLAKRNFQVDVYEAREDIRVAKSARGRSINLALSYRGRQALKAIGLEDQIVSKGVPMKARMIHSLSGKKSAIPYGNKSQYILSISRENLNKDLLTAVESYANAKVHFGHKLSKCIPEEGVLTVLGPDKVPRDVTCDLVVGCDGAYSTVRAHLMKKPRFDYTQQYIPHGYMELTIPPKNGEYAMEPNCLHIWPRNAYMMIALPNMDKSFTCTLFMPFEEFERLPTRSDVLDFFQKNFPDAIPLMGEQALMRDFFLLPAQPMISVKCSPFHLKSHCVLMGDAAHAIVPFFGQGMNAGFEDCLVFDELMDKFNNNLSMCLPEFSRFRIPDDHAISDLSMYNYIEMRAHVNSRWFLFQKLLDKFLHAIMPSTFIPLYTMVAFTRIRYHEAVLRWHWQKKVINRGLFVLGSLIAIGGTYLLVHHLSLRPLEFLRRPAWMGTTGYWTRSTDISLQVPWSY

One test concerns the target T1, KMO mouse enzyme (Mus musculus, UniProt Q91WN4).
T1 construct: KMO enzyme prepared at Evotec from mouse liver (4-6 weeks old) via mitochondria isolation; from tissue; host or cells: mouse liver (4-6 weeks old), mitochondria isolation, prepared at Evotec
The test is described as follows: KMO mouse enzyme assay: L-Kynurenine hydroxylation to 3-Hydroxy-Kynurenine monitored by LC/MS (MRM). The class given is biochemical. The following applies: compound at 10 μM; KMO enzyme from mouse liver mitochondria. On the procedure:
A method of monitoring L-Kynurenine (KYN) hydroxylation to form 3-Hydroxy-Kynurenine (3OH-KYN) by LC/MS is described. Product is quantified by multiple reaction monitoring (MRM method).
• Compound: Stock concentrations: 10 mM in 100% DMSO • Enzyme: KMO enzyme prepared at Evotec from mouse liver (4-6 weeks old) via mitochondria isolation as described in the literature • Substrate: L-Kynurenine (Sigma: Cat# K3750, stock concentration: 10 mM in 100 mM potassium phosphate buffer, pH 7.4) Assay Conditions: […]
For `Cc1ccc(NC(=O)c2cc(-c3ccc(Cl)c(Cl)c3)ncn2)cn1.Cl` [6-(3,4-Dichloro-phenyl)-pyrimidine-4-carboxylic acid (6-methyl-pyridin-3-yl)-amide hydrochloride salt], the “INH.Mouse @ 10 μM” value was 94.0.
With `O=C(c1cc(-c2ccc(Cl)c(Cl)c2)ncn1)N1CC2(CC2)c2ccccc21` [[6-(3,4-Dichloro-phenyl)-pyrimidin-4-yl]-(1′,2′-dihydro-spiro[cyclopropane-1,3′-[3H]indol]-1′)-methanone], the “INH.Mouse @ 10 μM” value came to 100.0.

Still in this test, the particulars now being: compound at 10 μM; KMO enzyme from mouse liver mitochondria; read-out: INH.Mouse @ 10 μM.
Regarding `O=C(c1cc(-c2cccc(Cl)c2)ncn1)N1CCC(O)CC1` [[6-(3-Chloro-phenyl)-pyrimidin-4-yl]-(4-hydroxy-piperidin-1-yl)-methanone], the inhibition at 10 µM turned out to be 100%.
The same measure, in the same setting: then `CC1Cc2ccccc2N1C(=O)c1cc(-c2cccc(Cl)c2)ncn1` (stereo not drawn) [[6-(3-Chloro-phenyl)-pyrimidin-4-yl]-(2-methyl-2,3-dihydro-indol-1-yl)-methanone], with 76.9%; and `Cc1nnc(NC(=O)c2cc(-c3cccc(Cl)c3)ncn2)o1` [6-(3-Chloro-phenyl)-pyrimidine-4-carboxylic acid (5-methyl-[1,3,4]oxadiazol-2-yl)-amide], with 100%; and `O=C(c1cc(-c2cc(Cl)cc(Cl)c2)ccn1)N1CCc2ccccc21` [[4-(3,5-Dichloro-phenyl)-pyridin-2-yl]-(2,3-dihydro-indol-1-yl)-methanone], with 54.5%.
Take `O=C(c1cc(-c2cccc(Cl)c2)ncn1)N1CCCC1` [[6-(3-Chloro-phenyl)-pyrimidin-4-yl]-pyrrolidin-1-yl-methanone]: the inhibition at 10 µM was 90.5%.
On the same count and under the same terms, the value for `O=C(Nc1ccccc1)c1cc(-c2ccc(Cl)c(Cl)c2)ccn1` [4-(3,4-Dichloro-phenyl)-pyridine-2-carboxylic acid phenylamide] was 43.5%; that for `O=C(Nc1nncs1)c1cc(-c2ccc(Cl)c(Cl)c2)ncn1` [6-(3,4-Dichloro-phenyl)-pyrimidine-4-carboxylic acid [1,3,4]thiadiazol-2-ylamide] was 100%.
As to `O=C(O)c1cc(-c2cc(C(F)(F)F)ccc2F)ncn1` [6-(2-Fluoro-5-trifluoromethyl-phenyl)-pyrimidine-4-carboxylic acid], the inhibition at 10 µM was determined as 80.3%.
On to `O=C(c1cc(-c2cccc(Cl)c2)ncn1)N1Cc2ccccc2C1` [[6-(3-Chloro-phenyl)-pyrimidin-4-yl]-(1,3-dihydro-isoindol-2-yl)-methanone], for which the inhibition at 10 µM was determined as 100%.
Regarding `Cc1ncccc1NC(=O)c1cc(-c2ccc(Cl)c(Cl)c2)ncn1` [6-(3,4-Dichloro-phenyl)-pyrimidine-4-carboxylic acid (2-methyl-pyridin-3-yl)-amide], the inhibition at 10 µM was found to be 84.2%.
As for `O=C(O)c1cc(-c2cncc(Cl)c2)ncn1` [6-(5-Chloro-pyridin-3-yl)-pyrimidine-4-carboxylic acid], the inhibition at 10 µM turned out to be 91.7%.
On the same count and under the same terms, then `COC(=O)c1cc(-c2ccc(F)c(C(F)(F)F)c2)ncn1` [6-(4-Fluoro-3-trifluoromethyl-phenyl)-pyrimidine-4-carboxylic acid methyl ester], with 92.7%; and `Cc1ccc(N(C)C(=O)c2cc(-c3cccc(Cl)c3)ncn2)cc1` [6-(3-Chloro-phenyl)-pyrimidine-4-carboxylic acid methyl-p-tolyl-amide], with 100%.
Same read-out and setting: then `O=C(c1cc(-c2ccc(Cl)c(Cl)c2)ncn1)N1CCc2ccccc21` [[6-(3,4-Dichloro-phenyl)-pyrimidin-4-yl]-(2,3-dihydro-indol-1-yl)-methanone], with 100%.
Take `O=C(c1cc(-c2cccc(Cl)c2)ncn1)N1CC[C@@H](O)C1` [[6-(3-Chloro-phenyl)-pyrimidin-4-yl]-((R)-3-hydroxy-pyrrolidin-1-yl)-methanone]: the inhibition at 10 µM is 83.9%.
On the same count and under the same terms, the value for `O=C(NCCO)c1cc(-c2cccc(Cl)c2)ncn1` [6-(3-Chloro-phenyl)-pyrimidine-4-carboxylic acid (2-hydroxy-ethyl)-amide] was 95.8%.
In the case of `COC(=O)c1cc(-c2cccc(F)c2)ncn1` [6-(3-Fluoro-phenyl)-pyrimidine-4-carboxylic acid methyl ester], the inhibition at 10 µM was 100%.
Still for that read-out and setting: the value for `Cc1ncc(NC(=O)c2cc(-c3ccc(Cl)c(Cl)c3)ncn2)cn1` [6-(3,4-Dichloro-phenyl)-pyrimidine-4-carboxylic acid (2-methyl-pyrimidin-5-yl)-amide] was 85.6%; that for `NC(=O)[C@H]1CCCN1C(=O)c1cc(-c2cccc(Cl)c2)ncn1` [(R)-1-[6-(3-Chloro-phenyl)-pyrimidine-4-carbonyl]-pyrrolidine-2-carboxylic acid amide] was 95.4%; that for `O=C(c1cc(-c2cccc(Cl)c2)ncn1)N1CCc2cc(Cl)ccc21` [(5-Chloro-2,3-dihydro-indol-1-yl)-[6-(3-chloro-phenyl)-pyrimidin-4-yl]-methanone] was 100%.
In the case of `O=C(Nc1ccc2c(c1)OC(F)(F)O2)c1cc(-c2cccc(Cl)c2)ncn1` [6-(3-Chloro-phenyl)-pyrimidine-4-carboxylic acid (2,2-difluoro-benzo[1,3]dioxol-5-yl)-amide], the inhibition at 10 µM came to 97.7%.
Same read-out and setting: then `O=C(NCc1ccccc1)c1cc(-c2cccc(Cl)c2)ncn1` [6-(3-Chloro-phenyl)-pyrimidine-4-carboxylic acid benzylamide], with 67%; and `O=C(Nc1ncccn1)c1cc(-c2cccc(Cl)c2)ncn1` [6-(3-Chloro-phenyl)-pyrimidine-4-carboxylic acid pyrimidin-2-ylamide], with 100%.
Same read-out and setting: then `Cc1ccc(NC(=O)c2cc(-c3cccc(Cl)c3)ncn2)cc1` [6-(3-Chloro-phenyl)-pyrimidine-4-carboxylic acid p-tolylamide], with 100%; and `O=C(c1cc(-c2cccc(Cl)c2)ncn1)N1CCCc2ccccc21` [[6-(3-Chloro-phenyl)-pyrimidin-4-yl]-(3,4-dihydro-2H-quinolin-1-yl)-methanone], with 100%; and `O=C(c1cc(-c2cc(Cl)cc(Cl)c2)ncn1)N1CCc2ccccc21` [[6-(3,5-Dichloro-phenyl)-pyrimidin-4-yl]-(2,3-dihydro-indol-1-yl)-methanone], with 98.3%.
On to `O=C(O)c1cc(-c2cccc(Cl)c2)ccn1` [4-(3-Chloro-phenyl)-pyridine-2-carboxylic acid], for which the inhibition at 10 µM amounted to 100%.
Same read-out and setting: the value for `O=C(O)c1cc(-c2cncc(F)c2)ncn1` [6-(5-Fluoro-pyridin-3-yl)-pyrimidine-4-carboxylic acid] was 96.1%; that for `COC(=O)c1cc(-c2cncc(Cl)c2)ncn1` [6-(5-Chloro-pyridin-3-yl)-pyrimidine-4-carboxylic acid methyl ester] was 93.2%.
On the same count and under the same terms, the value for `COc1cccc(NC(=O)c2cc(-c3cccc(Cl)c3)ncn2)c1` [6-(3-Chloro-phenyl)-pyrimidine-4-carboxylic acid (3-methoxy-phenyl)-amide] was 97.1%; that for `O=C(Nc1cccnc1)c1cc(-c2cccc(F)c2)ncn1` [6-(3-Fluoro-phenyl)-pyrimidine-4-carboxylic acid pyridin-3-ylamide] was 94.8%.
On the same count and under the same terms, then `O=C(Nc1cncnc1)c1cc(-c2cccc(Cl)c2)ccn1` [4-(3-Chloro-phenyl)-pyridine-2-carboxylic acid pyrimidin-5-ylamide], with 60.8%; and `O=C(c1cc(-c2cccc(Cl)c2)ncn1)N1CCOCC1` [[6-(3-Chloro-phenyl)-pyrimidin-4-yl]-morpholin-4-yl-methanone], with 100%; and `O=C(Nc1cncnc1)c1cc(-c2ccc(Cl)c(Cl)c2)ncn1` [6-(3,4-Dichloro-phenyl)-pyrimidine-4-carboxylic acid pyrimidin-5-ylamide], with 95.5%.
For the compound `O=C(c1cc(-c2ccc(Cl)c(Cl)c2)ncn1)N1Cc2ccccc2C1` [[6-(3,4-Dichloro-phenyl)-pyrimidin-4-yl]-(1,3-dihydro-isoindol-2-yl)-methanone], the inhibition at 10 µM came out at 63.5%.
Still for that read-out and setting: then `O=C(c1cc(-c2cccc(Cl)c2)ncn1)N1CCC1` [Azetidin-1-yl-[6-(3-chloro-phenyl)-pyrimidin-4-yl]-methanone], with 100%.
The same measure, in the same setting: the value for `COc1ccc(N(C)C(=O)c2cc(-c3cccc(Cl)c3)ncn2)cc1` [6-(3-Chloro-phenyl)-pyrimidine-4-carboxylic acid (4-methoxy-phenyl)-methyl-amide] was 100%; that for `C[C@@H](O)CNC(=O)c1cc(-c2cccc(Cl)c2)ncn1` [6-(3-Chloro-phenyl)-pyrimidine-4-carboxylic acid ((R)-2-hydroxy-propyl)-amide] was 74.3%.
Still for that read-out and setting: then `O=C(Nc1cncnc1)c1cc(-c2ccc(F)c(F)c2)ncn1` [6-(3,4-Difluoro-phenyl)-pyrimidine-4-carboxylic acid pyrimidin-5-ylamide], with 100%; and `O=C(NCc1ccncc1)c1cc(-c2cccc(Cl)c2)ncn1` [6-(3-Chloro-phenyl)-pyrimidine-4-carboxylic acid (pyridin-4-ylmethyl)-amide], with 100%.
For `Cc1cccc(NC(=O)c2cc(-c3cccc(Cl)c3)ncn2)c1` [6-(3-Chloro-phenyl)-pyrimidine-4-carboxylic acid m-tolylamide], the inhibition at 10 µM came to 96.6%.
For the compound `CS(=O)(=O)NC(=O)c1cc(-c2cccc(Cl)c2)ncn1` [N-[6-(3-Chloro-phenyl)-pyrimidine-4-carbonyl]-methanesulfonamide], the inhibition at 10 µM was determined as 99.5%.
Still for that read-out and setting: then `O=S(=O)(O)c1cc(-c2cccc(Cl)c2)ncn1` [Sodium; 6-(3-chloro-phenyl)-pyrimidine-4-sulfonate], with 97.1%.
